Results on 27 compounds are retold here after patent publication US10988477B2 (Merck Patent GmbH, priority 2018, dated 2021).

Each structure is given as a SMILES string. pIC50, pKi: −log10 of the molar value.

What is called pKi is the Ki on a negative log10 scale, so that one unit is a factor of ten. Read a high pKi as a small Ki. One may read the pIC50 as −log10 of the IC50, conventionally taken in molar units. Higher therefore signals a low IC50.

For experiment [1], the target named is GCN2 kinase (Homo sapiens, UniProt Q9P2K8). Description: GCN2 enzyme inhibition assay (Transcreener ADP2 fluorescence polarization). Format: biochemical. The settings on record: Enzyme activity for compounds of Formula IV; Ki(app), 280 μM ATP, 25° C. The method in brief: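 Kinase activity is followed as ADP formation, measured by fluorescence polarization, using 4 nM enzyme with 280 μM ATP and 200 μM (RS)7 peptide at pH 7.5 and 25 °C for 1 h. Values come from a non-linear tight-binding fit.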

Experiment [2] deals with intracellular GCN2 (phosphorylation of the GCN2 substrate eIF2α) (Homo sapiens, UniProt Q9P2K8). Description: GCN2 cellular inhibition assay (AlphaScreen SureFire P-eIF2α Ser51, borrelidin-treated U2OS cells). Type of experiment: cell-based. The settings on record: compounds of Formula IV; biomarker assay, phosphorylated eIF2α Ser51 in borrelidin-treated U2OS cells. The method in brief:
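Phospho-eIF2α (Ser51) in lysates was quantified by AlphaScreen SureFire after a 1 h, 37 °C treatment of U2OS cells with 10 μM borrelidin and compound at 4-fold dilutions starting from 40 μM final. Inhibition expressed in percent against wells stimulated by borrelidin alone.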
Background: Alpha assays give light when donor and acceptor beads are brought close together.

GCN2 kinase, sequence (Q9P2K8 whole entry): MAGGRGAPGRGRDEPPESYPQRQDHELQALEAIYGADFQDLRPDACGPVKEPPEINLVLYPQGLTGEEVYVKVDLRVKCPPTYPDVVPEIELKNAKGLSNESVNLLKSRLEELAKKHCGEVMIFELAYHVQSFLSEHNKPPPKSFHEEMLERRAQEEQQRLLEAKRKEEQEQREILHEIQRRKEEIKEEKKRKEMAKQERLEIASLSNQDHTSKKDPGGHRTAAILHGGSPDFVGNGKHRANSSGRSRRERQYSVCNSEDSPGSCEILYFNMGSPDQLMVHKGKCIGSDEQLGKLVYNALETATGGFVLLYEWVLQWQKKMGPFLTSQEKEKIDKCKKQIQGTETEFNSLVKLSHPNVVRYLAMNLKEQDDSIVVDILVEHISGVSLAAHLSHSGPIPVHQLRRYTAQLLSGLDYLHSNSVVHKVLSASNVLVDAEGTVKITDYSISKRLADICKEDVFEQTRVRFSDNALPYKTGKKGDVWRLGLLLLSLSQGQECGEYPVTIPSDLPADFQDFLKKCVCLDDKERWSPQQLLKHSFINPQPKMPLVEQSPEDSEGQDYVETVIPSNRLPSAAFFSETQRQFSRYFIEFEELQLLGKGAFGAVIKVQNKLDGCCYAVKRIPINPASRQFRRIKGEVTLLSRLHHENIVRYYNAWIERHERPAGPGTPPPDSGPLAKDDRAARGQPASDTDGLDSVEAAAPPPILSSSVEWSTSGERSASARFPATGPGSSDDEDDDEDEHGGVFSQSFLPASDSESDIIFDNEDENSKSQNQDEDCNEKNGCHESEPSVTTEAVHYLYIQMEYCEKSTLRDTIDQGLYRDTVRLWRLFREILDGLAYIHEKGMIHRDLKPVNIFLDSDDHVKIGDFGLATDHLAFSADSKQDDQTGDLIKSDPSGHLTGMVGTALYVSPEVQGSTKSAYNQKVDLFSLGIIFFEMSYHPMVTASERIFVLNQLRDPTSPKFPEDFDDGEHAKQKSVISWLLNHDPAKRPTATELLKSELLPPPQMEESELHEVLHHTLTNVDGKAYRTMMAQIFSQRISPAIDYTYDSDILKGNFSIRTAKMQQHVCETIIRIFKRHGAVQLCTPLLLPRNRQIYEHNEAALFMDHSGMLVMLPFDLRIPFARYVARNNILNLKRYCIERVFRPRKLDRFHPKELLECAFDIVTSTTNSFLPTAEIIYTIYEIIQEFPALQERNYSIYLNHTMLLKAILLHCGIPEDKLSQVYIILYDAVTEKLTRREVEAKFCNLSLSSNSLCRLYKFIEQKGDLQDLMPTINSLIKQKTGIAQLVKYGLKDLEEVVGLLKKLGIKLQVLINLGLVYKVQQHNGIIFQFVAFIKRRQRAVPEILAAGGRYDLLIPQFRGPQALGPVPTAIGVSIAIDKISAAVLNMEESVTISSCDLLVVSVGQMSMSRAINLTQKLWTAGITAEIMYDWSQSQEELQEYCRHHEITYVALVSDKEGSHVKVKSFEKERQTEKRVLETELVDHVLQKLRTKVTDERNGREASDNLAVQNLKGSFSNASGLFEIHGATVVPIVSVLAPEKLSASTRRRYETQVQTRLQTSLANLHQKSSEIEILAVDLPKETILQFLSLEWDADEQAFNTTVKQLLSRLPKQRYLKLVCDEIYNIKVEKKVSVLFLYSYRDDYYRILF
intracellular GCN2 (phosphorylation of the GCN2 substrate eIF2α), sequence (Q9P2K8 whole entry): as above

For the compound `FC(F)(F)c1cn2c(-c3nccc(N4CC(c5cn[nH]c5)NC(C(F)(F)F)C4)n3)cnc2cn1` (stereo not drawn) [IV-558, 3-(4-(3-(1H-Pyrazol-4-yl)-5-(trifluoromethyl)piperazin-1-yl)pyrimidin-2-yl)-6-(trifluoromethyl)imidazo[1,2-a]pyrazine], the pKi in experiment [1] is 7.00 to 8.00. For the same compound, the pIC50 in experiment [2] is below 5.30.
The matching figures for `CC1CN(c2cc(Cl)nc(-c3cnc4cnc(C(F)(F)F)cn34)n2)C(C)C(c2cn[nH]c2)N1` (stereo not drawn) [IV-567, 3-(4-Chloro-6-(2,5-dimethyl-3-(1H-pyrazol-4-yl)piperazin-1-yl)pyrimidin-2-yl)-6-(trifluoromethyl)imidazo[1,2-a]pyrazine]: 7.00 to 8.00 and 5.30 to 6.30.
The matching figures for `FC(F)(F)c1cn2c(-c3nccc(N4CCC(c5c[nH]nc5C(F)(F)F)C4)n3)cnc2cn1` (stereo not drawn) [IV-572, 6-(Trifluoromethyl)-3-(4-(3-(3-(trifluoromethyl)-1H-pyrazol-4-yl)pyrrolidin-1-yl)pyrimidin-2-yl)imidazo[1,2-a]pyrazine]: above 8.00 and 5.30 to 6.30.
`OCc1n[nH]cc1C1CCN(c2ccnc(-c3cnc4cnc(C(F)(F)F)cn34)n2)C1` (stereo not drawn) [IV-573, (4-(1-(2-(6-(Trifluoromethyl)imidazo[1,2-a]pyrazin-3-yl)pyrimidin-4-yl)pyrrolidin-3-yl)-1H-pyrazol-3-yl)methanol] had a pKi in experiment [1] of 7.00 to 8.00. In experiment [2], this compound had a pIC50 of 5.30 to 6.30.
The matching figures for `Cc1n[nH]c(C)c1C1CCN(c2ccnc(-c3cnc4cnc(C(F)(F)F)cn34)n2)C1` (stereo not drawn) [IV-574, 3-(4-(3-(3,5-Dimethyl-1H-pyrazol-4-yl)pyrrolidin-1-yl)pyrimidin-2-yl)-6-(trifluoromethyl)imidazo[1,2-a]pyrazine]: 7.00 to 8.00 and below 5.30.
The matching figures for `Cc1n[nH]cc1C1CCN(c2ccnc(-c3cnc4cnc(C(F)(F)F)cn34)n2)C1` (stereo not drawn) [IV-575, 3-(4-(3-(3-Methyl-1H-pyrazol-4-yl)pyrrolidin-1-yl)pyrimidin-2-yl)-6-(trifluoromethyl)imidazo[1,2-a]pyrazine]: 7.00 to 8.00 and 5.30 to 6.30.
The matching figures for `FC(F)(F)c1cn2c(-c3nccc(N4CCC(c5c[nH]nc5C5CC5)C4)n3)cnc2cn1` (stereo not drawn) [IV-576, 3-(4-(3-(3-Cyclopropyl-1H-pyrazol-4-yl)pyrrolidin-1-yl)pyrimidin-2-yl)-6-(trifluoromethyl)imidazo[1,2-a]pyrazine]: 7.00 to 8.00 and 5.30 to 6.30.
The compound `CC1CN(c2cncc(-c3cnc4cnc(C(F)(F)F)cn34)n2)C(C)C(c2cn[nH]c2)N1` (stereo not drawn) [IV-577, 3-(6-(2,5-Dimethyl-3-(1H-pyrazol-4-yl)piperazin-1-yl)pyrazin-2-yl)-6-(trifluoromethyl)imidazo[1,2-a]pyrazine] showed a pKi in experiment [1] above 8.00. Besides, the pIC50 in experiment [2] is 5.30 to 6.30.
As to `CNc1cc(N2CC(C)NC(c3cn[nH]c3)C2C)nc(-c2cnc3cnc(C(F)(F)F)cn23)n1` (stereo not drawn) [IV-578, 6-(2,5-Dimethyl-3-(1H-pyrazol-4-yl)piperazin-1-yl)-N-methyl-2-(6-(trifluoromethyl)imidazo[1,2-a]pyrazin-3-yl)pyrimidin-4-amine], the pKi in experiment [1] is above 8.00. This compound gave a pIC50 in experiment [2] of 5.30 to 6.30.
In the case of `FC(F)(F)c1cn2c(-c3nccc(N4CCC(C5CCOC5)C4)n3)cnc2cn1` (stereo not drawn) [IV-580, 3-(4-(3-(Tetrahydrofuran-3-yl)pyrrolidin-1-yl)pyrimidin-2-yl)-6-(trifluoromethyl)imidazo[1,2-a]pyrazine], the pKi in experiment [1] was 7.00 to 8.00. The pIC50 in experiment [2] was below 5.30.
The matching figures for `NC(=O)C1CN(c2ccnc(-c3cnc4cnc(C(F)(F)F)cn34)n2)CC(F)(F)C1` (stereo not drawn) [IV-582, 5,5-Difluoro-1-(2-(6-(trifluoromethyl)imidazo[1,2-a]pyrazin-3-yl)pyrimidin-4-yl)piperidine-3-carboxamide]: 7.00 to 8.00 and 5.30 to 6.30.
The matching figures for `CC1CN(c2cccc(-c3cnc4cnc(C(F)(F)F)cn34)n2)C(C)C(c2cn[nH]c2)N1` (stereo not drawn) [IV-583, 3-(6-(2,5-Dimethyl-3-(1H-pyrazol-4-yl)piperazin-1-yl)pyridin-2-yl)-6-(trifluoromethyl)imidazo[1,2-a]pyrazine]: above 8.00 and 5.30 to 6.30.
Taken in the same sequence, the figures for `FC(F)(F)c1cn2c(-c3nccc(N4CCCC(c5cc[nH]n5)C4)n3)cnc2cn1` (stereo not drawn) [IV-589, 3-(4-(3-(1H-Pyrazol-3-yl)piperidin-1-yl)pyrimidin-2-yl)-6-(trifluoromethyl)imidazo[1,2-a]pyrazine] were 7.00 to 8.00 and 5.30 to 6.30.
`CP(C)(=O)C1CC(c2cn[nH]c2)CN(c2ccnc(-c3cnc4cnc(C(F)(F)F)cn34)n2)C1` (stereo not drawn) [IV-590, (5-(1H-Pyrazol-4-yl)-1-(2-(6-(trifluoromethyl)imidazo[1,2-a]pyrazin-3-yl)pyrimidin-4-yl)piperidin-3-yl)dimethylphosphine oxide] gave a pKi in experiment [1] of 6.00 to 7.00. In experiment [2], this compound had a pIC50 below 5.30.
Taken in the same sequence, the figures for `CP(C)(=O)C1CC(c2cn[nH]c2)CN(c2ccnc(-c3cnc4cnc(C(F)(F)F)cn34)n2)C1` (stereo not drawn) [IV-591, (5-(1H-Pyrazol-4-yl)-1-(2-(6-(trifluoromethyl)imidazo[1,2-a]pyrazin-3-yl)pyrimidin-4-yl)piperidin-3-yl)dimethylphosphine oxide] were 6.00 to 7.00 and below 5.30.
In experiment [1], `COc1cc(N2CC(C)NC(c3cn[nH]c3)C2C)nc(-c2cnc3cnc(C(F)(F)F)cn23)n1` (stereo not drawn) [IV-593, 3-(4-(2,5-Dimethyl-3-(1H-pyrazol-4-yl)piperazin-1-yl)-6-methoxypyrimidin-2-yl)-6-(trifluoromethyl)imidazo[1,2-a]pyrazine] gave a pKi above 8.00. Moreover, the pIC50 in experiment [2] is 5.30 to 6.30.
Taken in the same sequence, the figures for `FC(F)(F)c1cn2c(-c3nccc(N4CCCC(c5cn[nH]c5Cl)C4)n3)cnc2cn1` (stereo not drawn) [IV-601, 3-(4-(3-(5-Chloro-1H-pyrazol-4-yl)piperidin-1-yl)pyrimidin-2-yl)-6-(trifluoromethyl)imidazo[1,2-a]pyrazine] were above 8.00 and above 6.30.
Taken in the same sequence, the figures for `FC(F)(F)c1cn2c(-c3nccc(N4CCC(C5CCOC5)C4)n3)cnc2cn1` (stereo not drawn) [IV-608, 3-(4-(3-(Tetrahydrofuran-3-yl)pyrrolidin-1-yl)pyrimidin-2-yl)-6-(trifluoromethyl)imidazo[1,2-a]pyrazine] were 6.00 to 7.00 and 5.30 to 6.30.
Taken in the same sequence, the figures for `FC(F)(F)c1cn2c(-c3nccc(N4CCC(C5CCOC5)C4)n3)cnc2cn1` (stereo not drawn) [IV-609, 3-(4-(3-(Tetrahydrofuran-3-yl)pyrrolidin-1-yl)pyrimidin-2-yl)-6-(trifluoromethyl)imidazo[1,2-a]pyrazine] were 6.00 to 7.00 and below 5.30.
In turn, `NC(=O)C1CCCN(c2ccnc(-c3cnc4cnc(C(F)(F)F)cn34)n2)C1` (stereo not drawn) [IV-626, 1-(2-(6-(Trifluoromethyl)imidazo[1,2-a]pyrazin-3-yl)pyrimidin-4-yl)piperidine-3-carboxamide] showed a pKi in experiment [1] above 8.00. This compound had a pIC50 in experiment [2] of 5.30 to 6.30.
Taken in the same sequence, the figures for `Cc1cc(N2CC(C)NC(c3cn[nH]c3)C2C)nc(-c2cnc3cnc(C(F)(F)F)cn23)n1` (stereo not drawn) [IV-627, 3-(4-(2,5-Dimethyl-3-(1H-pyrazol-4-yl)piperazin-1-yl)-6-methylpyrimidin-2-yl)-6-(trifluoromethyl)imidazo[1,2-a]pyrazine] were above 8.00 and 5.30 to 6.30.
The matching figures for `CC1(c2n[nH]cc2C2CCN(c3ccnc(-c4cnc5cnc(C(F)(F)F)cn45)n3)C2)CC1` (stereo not drawn) [IV-630, 3-(4-(3-(3-(1-Methylcyclopropyl)-1H-pyrazol-4-yl)pyrrolidin-1-yl)pyrimidin-2-yl)-6-(trifluoromethyl)imidazo[1,2-a]pyrazine]: 7.00 to 8.00 and below 5.30.
Regarding `CC1CCC(C(N)=O)CN1c1ccnc(-c2cnc3cnc(C(F)(F)F)cn23)n1` (stereo not drawn) [IV-631, 6-Methyl-1-(2-(6-(trifluoromethyl)imidazo[1,2-a]pyrazin-3-yl)pyrimidin-4-yl)piperidine-3-carboxamide], the pKi in experiment [1] is 7.00 to 8.00. For the same compound, the pIC50 in experiment [2] is 5.30 to 6.30.
Taken in the same sequence, the figures for `FC(F)(F)c1cn2c(-c3nccc(N4CCC(Cc5cn[nH]c5)C4)n3)cnc2cn1` (stereo not drawn) [IV-635, 3-(4-(3-((1H-Pyrazol-4-yl)methyl)pyrrolidin-1-yl)pyrimidin-2-yl)-6-(trifluoromethyl)imidazo[1,2-a]pyrazine] were 7.00 to 8.00 and 5.30 to 6.30.
Taken in the same sequence, the figures for `CC1CN(c2cc(N3CCC3)nc(-c3cnc4cnc(C(F)(F)F)cn34)n2)C(C)C(c2cn[nH]c2)N1` (stereo not drawn) [IV-637, 3-(4-(Azetidin-1-yl)-6-(2,5-dimethyl-3-(1H-pyrazol-4-yl)piperazin-1-yl)pyrimidin-2-yl)-6-(trifluoromethyl)imidazo[1,2-a]pyrazine] were above 8.00 and 5.30 to 6.30.
`CC1CN(c2cc(OCCO)nc(-c3cnc4cnc(C(F)(F)F)cn34)n2)C(C)C(c2cn[nH]c2)N1` (stereo not drawn) [IV-640, 2-((6-(2,5-Dimethyl-3-(1H-pyrazol-4-yl)piperazin-1-yl)-2-(6-(trifluoromethyl)imidazo[1,2-a]pyrazin-3-yl)pyrimidin-4-yl)oxy)ethan-1-ol]: the negative-log Ki (pKi) in experiment [1] is above 8.00. For the same compound, the pIC50 in experiment [2] is 5.30 to 6.30.
`CC1CN(c2cc(N=S(C)(C)=O)nc(-c3cnc4cnc(C(F)(F)F)cn34)n2)C(C)C(c2cn[nH]c2)N1` (stereo not drawn) [IV-648, ((6-(2,5-Dimethyl-3-(1H-pyrazol-4-yl)piperazin-1-yl)-2-(6-(trifluoromethyl)imidazo[1,2-a]pyrazin-3-yl)pyrimidin-4-yl)imino)dimethyl-λ^6-sulfanone]: in experiment [1], the pKi is above 8.00. For the same compound, the pIC50 in experiment [2] was 5.30 to 6.30.
